# Test results as given in patent US20230365582A1, “NOVEL COMPOUNDS HAVING INHIBITORY ACTIVITY ON PROSTAGLANDIN E2 RECEPTOR AND USES THEREOF” (KANAPH THERAPEUTICS INC., priority 2020, published 2023).
# Key:
# hEP2 = molecular target: T1, hEP2 (Homo sapiens, UniProt P43116); test: hEP2 cAMP assay; assay type: cell-based; conditions: HEK293 cells overexpressing hEP2; PGE2 agonist 400 pM; graded per Table 21; read-out: IC50 (nM) EP2 cAMP
# T1 construct: expressed in transfected cells; host or cells: HEK293
# Procedure: (§1) HEK293 cells overexpressing hEP2 were cultured in growth medium (GM: MEM (Gibco™, 11095080)/10% HI FBS (Gibco™, 10082147)/1% penicillin/streptomycin). Before the experiment, the growth medium was removed, and starvation medium (HBSS (Gibco™, 14025076)/10% GM) was added. Thereafter, the cells were incubated for 4 hours. The HEK293 cells harboring hEP2 were detached from the culture dish with a non-enzymatic cell dissociation buffer (Gibco™, 15040066). The cells were resuspended in assay buffer (AB: HBSS, 0.1% BSA stabilizer, 0.5 mM IBMX, 5 mM HEPES).
# (§2) 1,000 cells in 5 μL of AB were seeded per well in a 384 well plate (Corning™, 3570), and stock solutions of test compounds were prepared at a concentration of 1 mM in DMSO and serially diluted in DMSO to the concentration required for the inhibition dose response curve (test concentration range of 10 μM-0.001 nM). PGE2 (Sigma, P0409, stock solution: 1 μM) was used as an agonist at a final concentration of 400 pM corresponding to EC50-80. 2.5 μL of the diluted compound and 2.5 μL of PGE2 (400 pM final concentration) were transferred to the assay plate, and then the plate was incubated at room temperature for 12 minutes.
# (§3) 5 μL of each donor (Eu-cAMP tracer) and acceptor (ULight-anti-cAMP) was added, and the plate was incubated in the dark for 1 hour at room temperature, and then a Varioskan LUX multimode microplate reader was used to obtain the results (excitation: 334 nm, emission: 615 and 665 nm). The resulting FRET fluorescence value (665 nm/615 nm*10000) was converted and then calculated as a percentage of cAMP relative to the DMSO control value. IC50 values and curves were generated with GraphPad Prism software using log (inhibitor) versus response-variable slopes (4 parameters), and the median of multiple experiments was taken as the experiment result.
# hEP4 = molecular target: T2, hEP4 (Homo sapiens, UniProt P35408); test: hEP4 cAMP assay; assay type: cell-based; conditions: HEK293 cells overexpressing hEP4; PGE2 agonist 20 nM; graded per Table 21; read-out: IC50 (nM) EP4 cAMP
# T2 construct: expressed in transfected cells; host or cells: HEK293
# Procedure: as §1, with “overexpressing hEP4” for “overexpressing hEP2”, “(HBSS (Gibco™” for “(HBSS (Gibco™,”, “hours.” for “hours. The”, “harboring hEP4” for “harboring hEP2”
# as §2, with “plate (Corning®,” for “plate (Corning™,”, “solution: 100” for “solution: 1”, “of 20 nM” for “of 400 pM”, “PGE2 (20 nM” for “PGE2 (400 pM”, “for 18.5” for “for 12”
# as §3, with “compared” for “relative”, “slope” for “slopes”
# T2 sequence (P35408 whole entry): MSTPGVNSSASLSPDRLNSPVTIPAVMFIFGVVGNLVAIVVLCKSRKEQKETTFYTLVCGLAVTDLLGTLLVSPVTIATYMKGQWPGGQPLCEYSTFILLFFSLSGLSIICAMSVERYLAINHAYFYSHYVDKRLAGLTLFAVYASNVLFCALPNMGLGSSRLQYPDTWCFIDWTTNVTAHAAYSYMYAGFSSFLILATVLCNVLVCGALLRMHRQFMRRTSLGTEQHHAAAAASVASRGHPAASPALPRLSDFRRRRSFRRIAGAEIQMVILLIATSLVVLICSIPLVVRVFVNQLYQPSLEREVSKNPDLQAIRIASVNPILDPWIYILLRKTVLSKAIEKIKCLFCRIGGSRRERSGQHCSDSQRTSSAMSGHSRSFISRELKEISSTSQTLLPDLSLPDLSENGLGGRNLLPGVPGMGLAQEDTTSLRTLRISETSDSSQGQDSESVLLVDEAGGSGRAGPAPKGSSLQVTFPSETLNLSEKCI
# T1 sequence (P43116 whole entry): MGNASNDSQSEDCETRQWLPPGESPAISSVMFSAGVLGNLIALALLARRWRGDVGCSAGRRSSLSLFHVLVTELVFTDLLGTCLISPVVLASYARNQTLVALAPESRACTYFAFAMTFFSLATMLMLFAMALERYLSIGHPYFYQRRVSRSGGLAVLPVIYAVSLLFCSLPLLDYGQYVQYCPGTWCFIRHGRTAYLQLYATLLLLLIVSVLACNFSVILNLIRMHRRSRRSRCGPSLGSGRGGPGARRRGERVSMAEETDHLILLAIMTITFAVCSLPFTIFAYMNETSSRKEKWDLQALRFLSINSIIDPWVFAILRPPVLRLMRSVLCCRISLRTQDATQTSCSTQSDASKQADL
SMILES,IC50 (hEP2),IC50 (hEP4)
"COc1cc(F)cc(-c2ccc(Cc3ccsc3C(=O)NC3CC4(C3)CC(C(=O)O)C4)cc2)c1 (centres unmarked) [Example 19, 6-(3-((3′-fluoro-5′-methoxy-[1,1′-biphenyl]-4-yl)methyl)thiophene-2-carboxamido) spiro[3.3]heptane-2-carboxylic acid]",500 to 5000 nM,< 500 nM
"Cc1sc(C)c(C(=O)NC2CC3(C2)CC(C(=O)O)C3)c1Cc1ccc(Cl)cc1 (centres unmarked) [Example 23, 6-(4-(4-chlorobenzyl)-2,5-dimethylthiophene-3-carboxamido)spiro[3.3]heptane-2-carboxylic acid]",> 10000 nM,> 10000 nM
"COc1ccccc1-c1ccc(Cc2c(C)sc(C)c2C(=O)NC2CC3(C2)CC(C(=O)O)C3)cc1 (centres unmarked) [Example 24, 6-(4-((2′-methoxy-[1,1′-biphenyl]-4-yl)methyl)-2,5-dimethylthiophene-3-carboxamido)spiro[3.3] heptane-2-carboxylic acid]",> 10000 nM,500 to 5000 nM
"Cc1ccc(-c2ccc(Cc3c(C)sc(C)c3C(=O)NC3CC4(C3)CC(C(=O)O)C4)cc2)cc1C (centres unmarked) [Example 28, 6-(4-((3′,4′-dimethyl-[1,1′-biphenyl]-4-yl)methyl)-2,5-dimethylthiophene-3-carboxamido)spiro[3.3]heptane-2-carboxylic acid]",500 to 5000 nM,< 500 nM
"COc1cccc(-c2ccc(Cc3c(C)sc(C)c3C(=O)NC3CC4(C3)CC(C(=O)O)C4)cc2)c1 (centres unmarked) [Example 29, 6-(4-((3′-methoxy-[1,1′-biphenyl]-4-yl)methyl)-2,5-dimethylthiophene-3-carboxamido)spiro[3.3]heptane-2-carboxylic acid]",500 to 5000 nM,< 500 nM
"Cc1sc(C)c(C(=O)NC2CC3(C2)CC(C(=O)O)C3)c1Cc1ccc(C2=CCCCC2)cc1 (centres unmarked) [Example 32, 6-(2,5-dimethyl-4-((2′,3′,4′,5′_ tetrahydro-[1,1′-biphenyl]-4-yl)methyl)thiophene-3-carboxamido)spiro[3.3]heptane-2-carboxylic acid]",> 10000 nM,500 to 5000 nM
"Cc1sc(C)c(C(=O)NC2CC3(C2)CC(C(=O)O)C3)c1Cc1ccc(-c2ccoc2)cc1 (centres unmarked) [Example 33, 6-(4-(4-(furan-3-yl)benzyl)-2,5-dimethylthiophene-3-carboxamido)spiro[3.3]heptane-2-carboxylic acid]",500 to 5000 nM,< 500 nM
"COc1cc(F)cc(-c2ccc(Cc3c(C)sc(C)c3C(=O)NC3CC4(C3)CC(C(=O)O)C4)cc2)c1 (centres unmarked) [Example 34, 6-(4-((3′-fluoro-5′-methoxy-[1,1′-biphenyl]-4-yl)methyl)-2,5-dimethylthiophene-3-carboxamido)spiro[3.3]heptane-2-carboxylic acid]",500 to 5000 nM,< 500 nM
"Cc1sc(C)c(C(=O)NC2CC3(C2)CC(C(=O)O)C3)c1Cc1ccc(-c2ccc(S(C)(=O)=O)cc2)cc1 (centres unmarked) [Example 35, 6-(2,5-dimethyl-4-((4′-(methylsulfonyl)-[1,1′-biphenyl]-4-yl)methyl)thiophene-3-carboxamido)spiro[3.3]heptane-2-carboxylic acid]",> 10000 nM,5000 to 10000 nM
"Cc1sc(C)c(C(=O)NC2CC3(C2)CC(C(=O)O)C3)c1Cc1ccc(-c2ccc(C(=O)OC(C)(C)C)cc2)cc1 (centres unmarked) [Example 36, 6-(4-((4′-(tert-butoxycarbonyl)-[1,1′-biphenyl]-4-yl)methyl)-2,5-dimethylthiophene-3-carboxamido)spiro[3.3]heptane-2-carboxylic acid]",5000 to 10000 nM,< 500 nM
"Cc1sc(C)c(C(=O)NC2CC3(C2)CC(C(=O)O)C3)c1Cc1ccc(-c2ccc(F)c(C(=O)O)c2)cc1 (centres unmarked) [Example 37, 6-(4-((3′-carboxy-4′-fluoro-[1,1′-biphenyl]-4-yl)methyl)-2,5-dimethylthiophene-3-carboxamido)spiro[3.3]heptane-2-carboxylic acid]",> 10000 nM,5000 to 10000 nM
"Cc1sc(C)c(C(=O)NC2CC3(C2)CC(C(=O)O)C3)c1Cc1ccc(-c2cnn(C)c2)cc1 (centres unmarked) [Example 39, 6-(2,5-dimethyl-4-(4-(1-methyl-1H-pyrazol-4-yl)benzyl)thiophene-3-carboxamido)spiro[3.3]heptane-2-carboxylic acid]",> 10000 nM,500 to 5000 nM

# Now from value to compound:
IC50 (hEP2),IC50 (hEP4),SMILES
500 to 5000 nM,500 to 5000 nM,"O=C(NC1CC2(C1)CC(C(=O)O)C2)c1sccc1Cc1ccc(-c2ccccc2)cc1 (centres unmarked) [Example 18, 6-(3-([1,1′-biphenyl]-4-ylmethyl)thiophene-2-carboxamido)spiro[3.3]heptane-2-carboxylic acid]"
500 to 5000 nM,< 500 nM,"Cc1scc(C(=O)NC2CC3(C2)CC(C(=O)O)C3)c1Cc1ccc(-c2ccccc2)cc1 (centres unmarked) [Example 20, 6-(4-([1,1′-biphenyl]-4-ylmethyl)-5-methylthiophene-3-carboxamido)spiro[3.3]heptane-2-carboxylic acid]"
> 10000 nM,> 10000 nM,"O=C(NC1CC2(C1)CC(C(=O)O)C2)c1csc(-c2ccccc2)c1Cc1ccc(-c2ccccc2)cc1 (centres unmarked) [Example 21, 6-(4-([1,1′-biphenyl]-4-ylmethyl)-5-phenylthiophene-3-carboxamido)spiro[3.3] heptane-2-carboxylic acid]"
500 to 5000 nM,500 to 5000 nM,O=C(NC1CC2(C1)CC(C(=O)O)C2)c1csc(C2CC2)c1Cc1ccc(-c2ccccc2)cc1 (centres unmarked) [Example 22]
> 10000 nM,5000 to 10000 nM,"Cc1sc(C)c(C(=O)NC2CC3(C2)CC(C(=O)O)C3)c1Cc1ccc(-c2ccccc2O)cc1 (centres unmarked) [Example 25, 6-(4-((2′-hydroxy-[1,1′-biphenyl]-4-yl)methyl)-2,5-dimethylthiophene-3-carboxamido)spiro[3.3] heptane-2-carboxylic acid]"
> 10000 nM,500 to 5000 nM,"Cc1sc(C)c(C(=O)NC2CC3(C2)CC(C(=O)O)C3)c1Cc1ccc(-c2ccncc2)cc1 (centres unmarked) [Example 26, 6-(2,5-dimethyl-4-(4-(pyridin-4-yl)benzyl)thiophene-3-carboxamido)spiro[3.3]heptane-2-carboxylic acid]"
> 10000 nM,500 to 5000 nM,"Cc1sc(C)c(C(=O)NC2CC3(C2)CC(C(=O)O)C3)c1Cc1ccc(-c2cccnc2)cc1 (centres unmarked) [Example 27, 6-(2,5-dimethyl-4-(4-(pyridin-3-yl)benzyl)thiophene-3-carboxamido)spiro[3.3]heptane-2-carboxylic acid]"
> 10000 nM,< 500 nM,Cc1sc(C)c(C(=O)NC2CC3(C2)CC(C(=O)O)C3)c1Cc1ccc(-c2cccc(C#N)c2)cc1 (centres unmarked) [Example 30]
5000 to 10000 nM,< 500 nM,"CCc1ccc(-c2ccc(Cc3c(C)sc(C)c3C(=O)NC3CC4(C3)CC(C(=O)O)C4)cc2)cc1 (centres unmarked) [Example 31, 6-(4-((4′-ethyl-[1,1′-biphenyl]-4-yl)methyl)-2,5-dimethylthiophene-3-carboxamido)spiro[3.3]heptane-2-carboxylic acid]"
> 10000 nM,500 to 5000 nM,"Cc1ccccc1-c1ccc(Cc2c(C)sc(C)c2C(=O)NC2CC3(C2)CC(C(=O)O)C3)cc1 (centres unmarked) [Example 38, 6-(2,5-dimethyl-4-((2′-methyl-[1,1′-biphenyl]-4-yl)methyl)thiophene-3-carboxamido)spiro[3.3]heptane-2-carboxylic acid]"
